The text on series [1]:
Chemical Drug Class 1 New Drug
A Toxicity Test in Beagle Dogs Administered ZG0128 by Oral Gavage for 28 […]
The study consisted of 4 groups, including the control group and dose groups of […]
active ingredient ZG0163). Each group contained 10 dogs, with 5 male dogs and 5 female dogs. The dogs in each group were orally administered with control (empty capsule) or the corresponding doses of ZG0128 once a day for 28 consecutive days, followed by 28 days for recovery after drug discontinuation. The day of the first dose is defined as day 1 of the dosing period. During the dosing period and the recovery period, the general conditions of the dogs in different groups were observed every day.
The body weight and food intake of the dogs were measured twice a week during the dosing period and once a week during the recovery period, respectively. At 2-3 h after the dosing on day 14, and 2-3 h after the last dose as well as on the last day of the recovery period. The lead II electrocardiogram, blood pressure and body temperature (anal temperature) were measured. One ophthalmic examination and routine urinalysis were arranged at the end of dosing and recovery periods, respectively. Hematology and blood biochemistry tests were performed on day 15 and the end of the dosing and recovery periods, respectively.
In all other groups, 6 and 4 dogs
(male:female=1:1) were dissected at the end of dosing and recovery periods, respectively. After the dogs were euthanized, bone marrow smear, gross anatomy, organ weight measurement and histopathological examination of tissue samples were performed. Blood samples were collected from dogs before the first/last dose and 0.5, 1, 2, 4, 6, 10, 24 h after drug administration in ZG0128 dose groups. Blood samples were collected before the first/last dose and 2 h after the first/last dose, respectively.
LC-MS/MS was used to measure the concentration of the original drug ZG0163 and […]
the amide hydrolysis metabolite ZG0245 in blood samples at various time points and to calculate AUClast, Cmax, Tmax, and other toxicokinetic parameters.

Series [2] can be described thus: 26-week oral gavage toxicity. The series is classed as in vivo, Wistar rats. The protocol: (§1) Suzhou Zelgen Biopharmaceuticals Co., Ltd. Jaktinib Hydrochloride Tablets Chemical Drug Class 1 New Drug
Wistar rats were given 4, 12, or 30 mg/kg of ZG0128 via oral gavage once a day for 26 consecutive weeks, followed by 28 days for recovery after drug discontinuation.
Only the 30 mg/kg dose caused a slight decrease in lymphocyte counts, which might be related to the pharmacological effects of ZG0128. The lymphocyte counts were back to normal by the end of recovery period. No other obvious abnormalities related to the […]
conditions, body weight, ophthalmologic examination, blood biochemistry, blood coagulation, routine urinalysis, gross anatomy and histopathological examination during the trial. The no observed adverse effect level (NOAEL) was 30 mg/kg. At this dose, the drug exposure was 52697 h•ng/mL (based on the active ingredient ZG0163) in female rats and 67133 h•ng/mL in male rats on the first day of dosing, and on day 182 of dosing the drug exposure was 75339 h•ng/mL (based on the active ingredient ZG0163) in female rats and 45024 h•ng/mL in male rats. […]

The nature of series [3]: Single-dose oral toxicity. The series is classed as in vivo, Beagle dogs. As for the experimental part: as §1
During the trial, the general conditions of the […]
measured once on days 3, 7, and 13, respectively. After 14 days of observation, the […]
and blood biochemistry tests. All rats were euthanized for gross anatomy. […]
after drug administration. […] During the […]
biochemistry tests were performed on days 2 and 15. After 14 days of observation, all dogs were anesthetized and euthanized for gross anatomy. Blood samples were […]
administration in ZG0128 dose groups. LC-MS/MS was used to measure the […]
AUClast, Cmax, Tmax, and other toxicokinetic parameters.

Series [4] can be described thus: PK, 7-day intragastric dosing. The series is classed as in vivo, rats. The note with it: for AUC0-t / AUC0-∞ / Cmax / Tmax / t1/2: 30.5 mg/kg (multiple dose). As for the experimental part: After 7 consecutive days of continuous intragastric administration (30.5 mg/kg once a day) of ZG0128 in rats, the plasma concentration reached a steady state on day […]
values obtained after the single-dose administration, respectively. The Cmax and AUC0-t of the metabolite ZG0245 were 1.19 and 1.52 times the values obtained after the single-dose administration, respectively. […]
consecutive days of administration, there was no significant accumulation of ZG0163 and the metabolite ZG0245 in rats. The pharmacokinetic parameters obtained after […]
Table 12. Pharmacokinetic parameters of ZG0163 in rats given different doses of ZG0128 via oral gavage (n = 6, male:female=1:1).
Dosage Gender Tmax Cmax AUC0-t AUC0-∞ MRT t1/2

For orientation: NOAEL means the highest tested level that showed no adverse finding. Broadly, the Cmax is the peak of the concentration-time curve.

Like-named read-outs stand apart in the source and are kept apart here.

Turning to `Cl.Cl.O.[2H]C1([2H])COCC([2H])([2H])N1c1ccc(Nc2nccc(-c3ccc(C(=O)NCC#N)cc3)n2)cc1` [ZG0128, Jaktinib Dihydrochloride Monohydrate], the no-observed-adverse-effect level (NOAEL) in series [1] (28 days) stood at 18.3 mg/kg; in series [2] (rat, in vivo), 30 mg/kg. The same compound gave a dose causing death in series [1] (28 days) of 195.2 mg/kg. Further, the “highest non-severely toxic dose (HNSTD)” value in series [1] (dog, in vivo) came out at 61 mg/kg. The “maximum tolerated dose (MTD)” value in series [3] (single oral dose) came out at 1220 mg/kg. Moreover, in series [4] (30.5 mg/kg once a day), the “day on which steady state was reached” value was 5 days.
Turning to Jaktinib, the NOAEL in series [1] (28 days) was 18.3 mg/kg; in series [1] (Beagle dogs, oral, 28 days), 18.3 mg/kg/day; in series [2] (26 weeks), 30 mg/kg; in series [2] (Wistar rats, oral, 26 weeks) it was 30 mg/kg/day. For the same compound, the AUC0-t in series [3] (single oral 366 mg/kg ZG0128) was 10215 ± 10044 ng/mL; in series [3] (single oral 1220 mg/kg ZG0128) it was 19752 ± 9998 ng/mL; in series [4] (Female), 67600 ± 27600 ng·h/mL; in series [4] (Male) it was 35700 ± 13500 ng·h/mL; in series [4] (Overall), 51700 ± 26100 ng·h/mL. Moreover, the “AUC0-∞” value in series [4] (Female) stood at 67800 ± 27800 ng·h/mL; in series [4] (Male) it was 36000 ± 13800 ng·h/mL; in series [4] (Overall), 51900 ± 26200 ng·h/mL. Moreover, the maximum concentration (Cmax) worked out at 11000 ± 4220 ng/mL in series [4] (Female), 6340 ± 1230 ng/mL in series [4] (Male) and 8670 ± 3770 ng/mL in series [4] (Overall). The Tmax in series [4] (Female) was 1.0 h; in series [4] (Male), 1.0 (1.0-2.0) h; in series [4] (Overall) it was 1.0 (1.0-6.0) h. Besides, the t1/2 in series [4] (Female) is 1.81 ± 1.55 h; in series [4] (Male) it was 2.15 ± 0.62 h; in series [4] (Overall) it was 1.98 ± 1.07 h.

The record behind these values is article PMC7849180 (Frontiers in Pharmacology, 2020).
